Reference: US11413278B2, “Compounds and methods for promoting stress resistance” (priority 2015, dated 2022)
Like-named read-outs stand apart in the source and are kept apart here.

Key:
[1] = tested on: phosphorylated γH2A.X and TP53BP1; assay: DNA damage marker analysis (immuno-staining); settings: for activity at 10 µM: Homo sapiens, WI-38, 24 h; for P = Potential DNA-damaging / R = Potential DNA damaging: human, 24 h
Method: WI-38 cells were seeded on 96-well plates and cultured for 24 hrs and then incubated with small molecules for another 24 hrs. As the positive control to damage DNA, H2O2 was supplemented at 700 μM final concentration for the last 3 hrs. Cells were washed with phosphate-buffered saline (PBS), fixed with 4% paraformaldehyde and then blocked with 5% normal goat serum (Cell Signaling), plus 0.3% Triton X-100, for 1 hr. Primary antibody cocktail (rabbit anti-phospho-histone γH2A.X (Ser-139), 1:100; anti-phospho-TP53BP1 (Ser-1778), 1:100), prepared in 1% BSA and 0.3% Triton X-100/PBS, was then introduced and incubated overnight at 4 C. Next day, samples were washed with PBS and further incubated with fluorophore-conjugated secondary antibody (1:1,000) for 1 hr in the dark. Samples were then washed and incubated with DAPI dye (Life Technologies) (4 μg/ml final concentration) for the last 10 minutes. Images were collected on an INCell Analyzer 2000 (GE) and analyzed with the Developer software.
WI-38 cells were seeded (˜8,000 cells per well) on 96-well plates and cultured for 24 hrs and then incubated with small molecules for another 24 hrs. Doxorubicin (300 nM, 24 hrs) and H2O2 (700 μM, 3 hrs) were also introduced as the positive controls to damage DNA. Cells were washed with phosphate-buffered saline (PBS), fixed with 4% paraformaldehyde for 30 min and then blocked with 5% normal goat serum (Cell Signaling) and 0.3% Triton X-100 for 1 hr. Primary antibody cocktail (Cell Signaling, rabbit anti-phospho-histone γH2A.X (Ser-139), 1:100; anti-phospho-TP53BP1 (Ser-1778), 1:100) was prepared in PBS with 1% BSA and 0.3% Triton X-100 and incubated overnight at 4° C. Next day, samples were washed with PBS and further incubated with fluorophore-conjugated secondary antibody (1:1,000) for 1 hr in dark. Samples were then washed and incubated with DAPI dye (Life Technologies) (4 μg/ml final concentration) for 30 minutes. Images were collected on the INCell Analyzer 2000 (10× objective) and analyzed with the Developer Toolbox.

mTOR = mTOR inhibition (RPS6 phosphorylation status), In-Cell Western; format: cell-based, human
Method: In-Cell Western assays were performed, following a standard immuno-staining protocol. Briefly, WI-38 cells were treated with small molecules for 24 hrs, and then processed and incubated with primary antibody cocktail (Cell Signaling, mouse anti-RPS, 1:25; rabbit-anti-pRPS6-(Ser-235/236), 1:100) overnight at 4° C. Next day, samples were processed and incubated with fluorophore-conjugated secondary antibodies (Cell Signaling, DyLight 680-goat anti-mouse, 1:500; DyLight 800-goat anti-rabbit, 1:1,000). Images were collected on an Odyssey Imager (LI-COR) and analyzed with the Image Studio Lite software (version 5.0.21).
Mammalian target of rapamycin (mTOR) is a crucial regulator of cell growth and metabolism and has been implicated in aging and many diseases, including cancer, diabetes and neurological diseases (Dazert and Hall, 2011; Zoncu et al., 2011). […] In addition, the anti-diabetes drug metformin (Kalender et al., 2010), as well as other AMPK activators such as 2-deoxy-D-glucose (Inoki et al., 2003) and AICAR (Shaw et al., 2004), could inhibit mTORC1. Applicants examined the effects of our molecules (at three doses, 5 μM, 10 μM and 20 μM) on the phosphorylation status of ribosomal protein S6 (RPS6), a readout of mTOR activity, to ask whether they could inhibit mTOR.
In-Cell Western assays were performed, following the same procedures to analyze DNA-damage markers. WI-38 cells were incubated with small molecules for 24 hrs, and then processed and incubated with primary antibody cocktail (mouse anti-RPS, 1:25; rabbit-anti-pRPS6, 1:100) overnight at 4° C. Next day, samples were processed and incubated with fluorophore-conjugated secondary antibodies (goat anti-mouse, 1:500; goat anti-rabbit, 1:1,000) in antibody dilution buffer. Images were collected on an Odyssey Imager (LI-COR) and analyzed with the Image Studio Lite software.

WI-38 cells = settings: for No H2O2 stress treatment, at 10 uM (fold change): normalized ATP measurement; for Assay 1: H2O2-resistant: YES/NO, if NO, possibly due to repeated freezing/thawing of stocks
FOXO3 = FOXO3 siRNA knockdown: dependency for H2O2-resistance; format: cell-based, human; settings: for FOXO3-dependency for H2O2-resistance (experiment 3): with & without H2O2, FOXO3 knockdown in WI-38 cells
Method: For qPCR analysis, WI-38 cells were treated with small molecules (at 10 μM) (biological quadruplicates) for 24 hrs and processed for RNA isolation and reverse transcription (RT) with the Cells-to-Ct Kit (Life Technologies), following manufacturer's instructions. RT products were diluted with H2O and used for qPCR analysis on an ABI 7300 system (Life Technologies) (technical triplicates). Relative expression levels of target genes were normalized to the genes B2M, PPIA and GAPDH. To knock down the expression of FOXO3 or NRF2, WI-38 cells were transfected, using the RNAiMAX reagents (Life Technologies), with siRNA oligos (at 10 nM final concentration, 10 ml culture medium) for FOXO3 (Life Technologies) or NRF2 (Integrated DNA Technologies) on 10-cm petri dishes for 36 hrs, and then detached and aliquoted onto 96-well (for qPCR analysis) or 384-well plates (for H2O2-stress treatment). ˜24 hrs later, small molecules were introduced and incubated with cells for 24 hrs. Cells were then either processed with the Cells-to-Ct Kit to prepare RT products for qPCR analysis or subjected to H2O2 (700 μM) for 3 hrs and assayed for viability. The knockdown efficiency of FOXO3 or NRF2 was checked at 36 hrs post-transfection and at the end as well. […]
Applicants used siRNA to knock down FOXO3 expression by ˜70% in an attempt to identify whether the activation of these genes depends on activity of FOXO3 and/or NRF2. […] We used siRNA to knock down FOXO3 expression by ˜60% to 70% (FIG. 3; see data in Table 6). […] (Given the caveat that FOXO3 was not fully knocked down, partial dependency was scored when the H2O2-resistance capacity was reduced by at least 25% but less than 50% upon siRNA knockdown). At least for Gr-7A and Gr-7C, which are structurally related, the observed FOXO3-dependency for H2O2-resistance is consistent with their strong effects to induce FOXO3 target genes (Tables 1a-1f, Table 6, & Table 15), including SOD2 and GADD45A.

[2] = read-out: Experiment 1, H2A.X-P DNA damage foci staining (no H2O2 stress treatment), at 10 uM
[3] = read-out: Experiment 2, H2A.X-P DNA damage foci staining (no H2O2 stress treatment), at 10 uM
[4] = read-out: Experiment 2, H2A.X-P DNA damage foci staining (under H2O2 stress treatment), at 10 uM
[5] = read-out: Experiment 2, TP53BP1-P DNA damage foci staining (no H2O2 stress treatment), at 10 uM
[6] = read-out: Experiment 2, TP53BP1-P DNA damage foci staining (under H2O2 stress treatment), at 10 uM
[7] = WI-38 cells, 10 μM, (*) = compromised ability to protect cells from H2O2, could be due to stability issue
[8] = asterisks indicate the loss of the ability to protect cells from H2O2 over time
[9] = read-out: Est. ED50, dose response 0.6-20 μM, H2O2-resistance
[10] = derived from dose response curves, 0.6-20 uM, H2O2-resistance of WI-38 cells
[11] = 10 uM, YES = resistance reduced by at least 50%, partial = 25% to 50%

SMILES | activity at 10 µM [1, 2] [%] | activity at 10 µM [1, 3] [%] | activity at 10 µM [1, 4] [%] | activity at 10 µM [1, 5] [%] | activity at 10 µM [1, 6] [%] | P = Potential DNA-damaging [1] | R = Potential DNA damaging [1] | G = mTOR down-regulation (mTOR; 2-point score) | G = mTOR down-regulation (mTOR; summary score) | H2O2-resistant (WI-38 cells; [7]) | No H2O2 stress treatment, at 10 uM (fold change) (WI-38 cells; WI-38 cells) | Assay 1: H2O2-resistant (WI-38 cells) | H2O2-resistant (WI-38 cells; [8]) | EC50 (WI-38 cells; [9]) [µM] | I = FOXO3-dependency for H2O2-resistance (FOXO3; score) | I = FOXO3-dependency for H2O2-resistance (FOXO3; summary score) | EC50 (WI-38 cells; [10]) [µM] | other results
O=C(/C=C/c1cn(-c2ccccc2)nc1-c1cccnc1)c1ccccc1 [Gr-6B] | 93.4 | 112 | 136 | 176 | 272 | 0 | 0 | 0 | 0 | YES | 1.10 | YES | YES | 45.1 | 0 | 0 | – | –
O=C(Nc1cccc(C(F)(F)F)c1)c1ccc([N+](=O)[O-])o1 [Gr-1E] | 162 | 107 | 151 | 289 | 475 | 0 | 0 | 0 | 0 | YES | 0.96 | YES | YES | 2.76 | 0 | 0 | 3.7 | –
Nc1ccccc1S(=O)(=O)Nc1cccc2cccnc12 [Gr-3C] | 113 | 404 | 136 | 254 | 390 | 1 | 1 | 0 | 0 | YES | 0.95 | – | YES | 4.6 | 0 | 0 | 6.5 | –
NS(=O)(=O)c1ccc(NC(=O)c2ccc([N+](=O)[O-])o2)cc1 [Gr-1A] | 196 | 223 | 179 | 411 | 653 | 1 | 1 | 0 | 0 | YES | 0.72 | YES | YES | 2.53 | 0 | 0 | 6 | FOXO3-dependency for H2O2-resistance (experiment 3) (FOXO3; [11]): No; FOXO3-dependency for H2O2-resistance (experiment 1 & 2) (FOXO3; 10 uM, with H2O2, FOXO3 knockdown in WI-38 cells, YES = resistance reduced by at least 50%, partial = 25% to 50%): No
O=C(/C(=C/c1ccc(Cl)cc1)c1nc2ccccc2[nH]1)c1ccccc1 [Gr-4D] | 103 | 49.6 | 123 | 136 | 388 | 0 | 0 | 0 | 0 | YES | 1.11 | YES | YES | 8.9 | 0 | 0 | 10.6 | FOXO3-dependency for H2O2-resistance, at 10 uM (experiment 3) - with & without H2O2 (FOXO3; 10 uM, experiment 3, with & without H2O2): Partial; FOXO3-dependency for H2O2-resistance (experiment 3) (FOXO3; [11]): Partial; Requirement of FOXO3 to promote H2O2-resistance (FOXO3; FOXO3 siRNA, at least 2 of 3 independent experiments): not FOXO3
Cc1cc(N)n(-c2ccccc2C(=O)O)n1 [Gr-6A] | 117 | 59.9 | 200 | 138 | – | 0 | 0 | 0 | 0 | YES | 1.10 | YES | YES | 40.5 | 0 | 0 | 13.8 | –
Cc1ccc(S(=O)(=O)Nc2cccc3cccnc23)cc1 [Gr-3B] | 81.9 | 228 | 130 | 244 | 66.3 | 0 | 0 | 0 | 0 | YES | 0.90 | – | YES | 4.24 | 0 | 0 | 8.5 | –
